Test results taken from patent publication US9248202B2, “Two-photon probe for detecting copper(II) ion and quantitative estimation of copper(II) ion in human tissue using the same” (Korea University Research and Business Foundation, priority 2014, dated 2016).

Tests used:
[1] = Absorption and fluorescence spectra, quantum yield, energy transfer; assay type: physicochemical; details: for φ (fluorescence quantum yield): uncertainty ± 15%; for λmax^abs: one-photon absorption; for λmax^t1: one-photon emission
Procedure: Absorption spectra were recorded using the Hewlett-Packard 8453 diode array spectrophotometer and fluorescence spectra were measured using the Amico-Bowman series 2 luminescence spectrometer a 1 cm standard quartz cell. The fluorescence quantum yield was determined using coumarin 307 and rhodamine B as references according to the literature method (J. N. Demas, G. A. Crosby, J. Phys. Chem. 1971, 75, 991).
(hereinafter, ‘ACCu2’), a compound of [Chemical Formula 12] (hereinafter, ‘FL’) and a compound of [Chemical Formula 13] (hereinafter, ‘IR’) in 1,4-dioxane, DMF, ethanol, EtOH/HEPES (9:1) and HEPES buffer ([HEPES]=20 mM, pH 7.0). Excitation wavelength was 420 nm. The solubility of ACCu2 in HEPES buffer ([HEPES]=20 mM, pH 7.0) as determined by the fluorescence method described in the literature (Kim, H. M.; Choo, H. J.; Jung, S. Y.; Ko, Y. G.; Park, W. H.; Jeon, S. J.; Kim, C. H.; Joo, T. H.; Cho, B. R. Chem Bio Chem 2007, 8, 553) was 8.0 μM, which was sufficient to stain cells.
To assess the origin of the spectral changes, the energy transfer efficiency (ETE) was calculated using Equation (1). The ETE was 93.4%.
In Equation (1), AIR and AIR′ are the absorbances of the IR moiety and IR, respectively, and FIR and FIR′ are the emission intensities of the IR moiety and IR, respectively, upon excitation at 373 nm.
The antenna effect in the one-photon (OP) (or TP) mode was 3.0 (or 3.1). The antenna effect was calculated by dividing the area of emission from the FL moiety upon excitation of the IR moiety at 373 nm (or 750 nm in the TP mode) by that collected from the direct excitation of FL at 461 nm (or 880 nm in the […]).

[2] = Two-photon action cross section; assay type: physicochemical; details: EtOH/HEPES (9/1 v/v, pH 7.0)
Procedure: Referring to FIG. 4(a), the Φδmax value of ACCu2 in EtOH/HEPES (9/1 v/v, pH 7.0) buffer was 32 GM at 880 nm, while those for FL and IR were 32 GM at 880 nm and 46 GM at 750 nm. The lower Φδmax value of ACCu2 at 750 nm than that of IR is because of decreased fluorescence resonance energy transfer (FRET) from IR to FL and it allows to obtain bright TPM images of cells and ^.tissues labeled with ACCu2.
The two-photon cross section (δ) was determined by the fe tosecond (fs) fluorescence measurement technique described in the literature (S. K. Lee, W. J. Yang, J. J. Choi, C. H. Kim, S.-J. Jeon, B. R. Cho, Org. Lett 2005, 7, 323-326.), ACCu2 was dissolved in 20 mM HEPES buffer (pH 7.0) to a concentration of 3.0×10^−6 M and then two-photon induced fluorescence intensity was measured at 740-940 nm using rhodamine 6G as a reference, whose two-photon property has been well characterized. The intensities of two-photon induced fluorescence of the reference and the sample were determined at the same excitation wavelength.
The two-photon cross section can be calculated from equation (3). δ=δr(SsΦrΦrcr)/(SrΦsΦscs) Equation (3)
wherein s and r stand for the sample, i.e., ACCu2, and the reference, respectively. S denotes the intensity of the signal collected using a CCD detector, Φ is the fluorescence quantum yield, Φ is the overall fluorescence collection efficiency of the experimental apparatus, c is the number density of molecules in solution, and δr is the two-photon cross section of the reference molecule.

SMILES	φ (fluorescence quantum yield) ([1]; 1,4-Dioxane (0.164))	φ (fluorescence quantum yield) ([1]; DMF (0.386))	φ (fluorescence quantum yield) ([1]; EtOH (0.654))	φ (fluorescence quantum yield) ([1]; EtOH/HEPES (9:1))	φ (fluorescence quantum yield) ([1]; HEPES buffer 20 mM, pH 7.0)	λmax^abs ([1]; 1,4-Dioxane (0.164)) [nm]	λmax^abs ([1]; DMF (0.386)) [nm]	λmax^abs ([1]; EtOH (0.654)) [nm]	λmax^abs ([1]; EtOH/HEPES (9:1)) [nm]	λmax^abs ([1]; HEPES buffer 20 mM, pH 7.0) [nm]	λmax^t1 ([1]; 1,4-Dioxane (0.164)) [nm]	λmax^t1 ([1]; DMF (0.386)) [nm]	λmax^t1 ([1]; EtOH (0.654)) [nm]	λmax^t1 ([1]; EtOH/HEPES (9:1)) [nm]	λmax^t1 ([1]; HEPES buffer 20 mM, pH 7.0) [nm]	Φδmax (two-photon action cross section) ([2]; at 880 nm) [GM]	Φδmax (two-photon action cross section) ([2]; at 750 nm) [GM]
CN(C)c1ccc2cc3cc(C(=O)NCc4ccc(C(=O)O)cn4)c(=O)oc3cc2c1 [FL]	0.77	0.29	0.25	0.15	0.0045	438	454	457	461	452	536	576	582	587	590	32	
COCCOCCOCCOc1ccc2c(ccc3cc(C(=O)N4CCNCC4)c(=O)oc32)c1 [IR]	0.080	0.070	0.18	0.62	1.00	367	366	372	373	375	445	448	451	460	468		46
